Test results reported in ChEMBL document CHEMBL1201862, “PubChem BioAssay data set” (2004).
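Cells were grown in 96-well plates and exposed to each compound for 48 hours at five concentrations; endpoints were interpolated linearly between bracketing concentrations, or set to the highest concentration if not reached. The concentration for 50% growth inhibition is given as GI50.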 Calls of active or inactive are those of the source. Rule as the data show it: active = GI50 up to about 1.1 µM and inactive = higher.

Assays:
Assay in all cases: DTP human tumour cell line panel, 48 h
NCI-H522 = tested on: NCI-H522
SF-295 = tested on: SF-295
OVCAR-3 = tested on: OVCAR-3
Malme-3M = tested on: Malme-3M
SK-MEL-5 = tested on: SK-MEL-5
OVCAR-4 = tested on: OVCAR-4
ACHN = tested on: ACHN
NCI-H460 = tested on: NCI-H460
OVCAR-8 = tested on: OVCAR-8
K562 = tested on: K562
SF-268 = tested on: SF-268
SN12C = tested on: SN12C
M14 = tested on: M14
HOP-62 = tested on: HOP-62
HOP-92 = tested on: HOP-92
A498 = tested on: A498
NCI-H226 = tested on: NCI-H226
CAKI-1 = tested on: CAKI-1

Measured: GI50

CC(C(=O)N1C(=O)N(C(=O)C(C)C(O)c2ccccc2)C2CCCCC21)C(O)c1ccccc1 (stereo not given)
inactive: NCI-H522 46.8 µM | SF-295 34.9 µM | OVCAR-3 78.2 µM | Malme-3M 57.4 µM | SK-MEL-5 30.1 µM | OVCAR-4 57.4 µM | ACHN 58.9 µM | NCI-H460 49.1 µM | OVCAR-8 88.3 µM | K562 > 10 µM | SF-268 > 100 µM | SN12C > 100 µM | M14 79.8 µM | HOP-62 > 100 µM

N#CC(C(=O)CCC(=O)Nc1cccc(Cl)c1)c1ccccc1 (stereo not given)
inactive: NCI-H522 > 100 µM | SF-295 > 100 µM | HOP-92 > 100 µM | OVCAR-3 > 100 µM | Malme-3M > 100 µM | SK-MEL-5 > 100 µM | OVCAR-4 > 100 µM | ACHN > 100 µM | NCI-H460 > 100 µM | OVCAR-8 > 100 µM | A498 > 100 µM | NCI-H226 > 100 µM | K562 > 100 µM | SF-268 > 100 µM | SN12C > 100 µM | M14 > 100 µM | HOP-62 > 100 µM

O=c1nc2occc2cn1C1CC(O)C(CO)O1 (stereo not given)
inactive: SF-295 > 100 µM | HOP-92 > 100 µM | OVCAR-3 > 100 µM | Malme-3M > 100 µM | CAKI-1 > 100 µM | SK-MEL-5 > 100 µM | OVCAR-4 > 100 µM | ACHN > 100 µM | NCI-H460 > 100 µM | OVCAR-8 > 100 µM | A498 > 100 µM | NCI-H226 > 100 µM | K562 > 100 µM | SF-268 > 100 µM | SN12C > 100 µM | M14 > 100 µM | HOP-62 > 100 µM

Cc1cc(NCCCCCCCNc2cc(C)nc3cc(N)ccc23)c2ccc(N)cc2n1
inactive: NCI-H522 13.7 µM | SF-295 10.3 µM | OVCAR-3 44 µM | Malme-3M 36 µM | CAKI-1 > 100 µM | SK-MEL-5 22.2 µM | OVCAR-4 72.3 µM | ACHN > 100 µM | NCI-H460 27.2 µM | OVCAR-8 36.3 µM | A498 43.2 µM | NCI-H226 20.4 µM | K562 1.37 µM | SF-268 60.3 µM | SN12C 10.5 µM | M14 43 µM | HOP-62 41.9 µM

N/N=C1\C(=O)N(c2ccc(Cl)c(Cl)c2)C(=O)C1C(=O)Nc1ccc(Cl)c(Cl)c1 (stereo not given)
inactive: NCI-H522 50.9 µM | SF-295 31.9 µM | HOP-92 48.1 µM | OVCAR-3 49.9 µM | Malme-3M > 100 µM | SK-MEL-5 17.5 µM | OVCAR-4 80.4 µM | ACHN 43.2 µM | NCI-H460 54.5 µM | OVCAR-8 42.8 µM | A498 44.3 µM | K562 34.8 µM | SF-268 55.1 µM | SN12C 51.5 µM | M14 > 100 µM | HOP-62 41.4 µM

COC(=O)CCC(NC(=S)N/N=C(\C)c1ccc[nH]1)C(=O)OC (stereo not given)
inactive: NCI-H522 > 100 µM | SF-295 > 100 µM | HOP-92 > 100 µM | OVCAR-3 > 100 µM | Malme-3M > 100 µM | SK-MEL-5 > 100 µM | OVCAR-4 > 100 µM | ACHN > 100 µM | NCI-H460 > 100 µM | OVCAR-8 > 100 µM | A498 > 100 µM | NCI-H226 > 100 µM | K562 > 100 µM | SF-268 > 100 µM | SN12C > 100 µM | M14 > 100 µM | HOP-62 > 100 µM

O=C1C(c2ccc(Br)cc2)=[N+]([O-])c2ccccc21
inactive: NCI-H522 2.45 µM | SF-295 > 10 µM | HOP-92 7.21 µM | OVCAR-3 14.9 µM | Malme-3M 18.4 µM | SK-MEL-5 9.55 µM | ACHN 13.4 µM | NCI-H460 16.9 µM | OVCAR-8 10.2 µM | A498 22.1 µM | NCI-H226 13.1 µM | K562 10.2 µM | SF-268 17.6 µM | SN12C 15.5 µM | M14 16.3 µM | HOP-62 27 µM

NC(=S)N1N=C2c3ccccc3CC[C@H]2[C@@H]1c1ccc(Cl)cc1
inactive: NCI-H522 9.18 µM | SF-295 26.7 µM | HOP-92 22.3 µM | OVCAR-3 28.2 µM | Malme-3M 19.4 µM | OVCAR-4 30.8 µM | ACHN 24.4 µM | NCI-H460 27 µM | OVCAR-8 31.6 µM | A498 35.5 µM | NCI-H226 16.7 µM | K562 19.5 µM | SF-268 32.5 µM | SN12C 30.6 µM | M14 28.2 µM | HOP-62 30.1 µM

CC(=O)/C=C1/c2ccccc2N(C(C)=O)C1O (stereo not given)
inactive: SF-295 > 100 µM | HOP-92 > 100 µM | OVCAR-3 > 100 µM | CAKI-1 > 100 µM | OVCAR-4 > 100 µM | ACHN > 100 µM | NCI-H460 > 100 µM | OVCAR-8 > 100 µM | A498 > 100 µM | K562 > 100 µM | SN12C > 100 µM | M14 > 100 µM | HOP-62 > 100 µM

O=C1NC(=S)NC(=O)C1=Cc1cc2c(cc1[N+](=O)[O-])OCO2
inactive: NCI-H522 > 100 µM | OVCAR-3 > 100 µM | Malme-3M > 100 µM | CAKI-1 94.4 µM | SK-MEL-5 > 100 µM | OVCAR-4 > 100 µM | ACHN > 100 µM | NCI-H460 > 100 µM | OVCAR-8 73.3 µM | A498 > 100 µM | NCI-H226 > 100 µM | K562 41.8 µM | SF-268 > 100 µM | SN12C 74.6 µM | M14 77.6 µM | HOP-62 > 100 µM

Cc1cc(C)c(N)c(C)c1N
inactive: NCI-H522 > 100 µM | SF-295 > 100 µM | HOP-92 > 100 µM | OVCAR-3 > 100 µM | Malme-3M > 100 µM | SK-MEL-5 > 100 µM | ACHN > 100 µM | NCI-H460 > 100 µM | OVCAR-8 > 100 µM | A498 > 100 µM | K562 > 100 µM | SF-268 > 100 µM | SN12C > 100 µM | M14 > 100 µM | HOP-62 > 100 µM

COc1ccc(CCN2CCC(C#N)(c3ccc(OC)c(OC)c3)CC2)cc1OC
inactive: NCI-H522 84.9 µM | SF-295 79.6 µM | HOP-92 13.5 µM | OVCAR-3 > 100 µM | Malme-3M > 100 µM | SK-MEL-5 > 100 µM | OVCAR-4 > 100 µM | ACHN > 100 µM | NCI-H460 > 100 µM | OVCAR-8 > 100 µM | NCI-H226 > 100 µM | K562 > 100 µM | SF-268 > 100 µM | SN12C > 100 µM | M14 > 100 µM | HOP-62 > 100 µM

CNC(=S)OCCC(C)CCCC(C)C (stereo not given)
inactive: SF-295 21.5 µM | Malme-3M 21.5 µM | CAKI-1 17.1 µM | SK-MEL-5 17.5 µM | OVCAR-4 16.7 µM | ACHN 18.8 µM | NCI-H460 18.7 µM | OVCAR-8 17.3 µM | A498 16.3 µM | K562 13.7 µM | SF-268 17 µM | SN12C 16.3 µM | M14 18.6 µM | HOP-62 19.6 µM

COC(=O)c1ccc(N/C=C(/C#N)c2ccsc2)cc1
inactive: SF-295 7.18 µM | OVCAR-3 9.66 µM | Malme-3M 16.8 µM | CAKI-1 15.1 µM | ACHN 5.97 µM | NCI-H460 32.6 µM | OVCAR-8 6.61 µM | A498 4.06 µM | NCI-H226 20.7 µM | K562 > 100 µM | SF-268 10.9 µM | SN12C > 10 µM | HOP-62 13.3 µM

CC12Nc3ccccc3C1=C(c1ccccc1)CC1C(=O)OC(=O)C12 (stereo not given)
inactive: NCI-H522 > 100 µM | SF-295 > 100 µM | HOP-92 > 100 µM | OVCAR-3 > 100 µM | Malme-3M > 100 µM | SK-MEL-5 > 100 µM | OVCAR-4 > 100 µM | ACHN > 100 µM | NCI-H460 > 100 µM | OVCAR-8 > 100 µM | K562 > 100 µM | SF-268 > 100 µM | SN12C > 100 µM | M14 > 100 µM | HOP-62 > 100 µM

O=C1CCC(=O)N1Sc1ccccc1
inactive: NCI-H522 > 100 µM | SF-295 > 100 µM | HOP-92 > 100 µM | OVCAR-3 > 100 µM | CAKI-1 > 100 µM | SK-MEL-5 > 100 µM | OVCAR-4 > 100 µM | ACHN > 100 µM | NCI-H460 > 100 µM | OVCAR-8 > 100 µM | A498 > 100 µM | K562 > 100 µM | SF-268 > 100 µM | SN12C > 100 µM | M14 > 100 µM | HOP-62 > 100 µM

CC(C)c1cccc(C(C)C)c1NC(=O)C(=O)CC(=O)CC(c1ccccc1)c1c(O)oc2ccccc2c1=O (stereo not given)
inactive: NCI-H522 > 100 µM | SF-295 > 100 µM | HOP-92 > 100 µM | OVCAR-3 > 100 µM | Malme-3M > 100 µM | CAKI-1 > 100 µM | SK-MEL-5 > 100 µM | OVCAR-4 > 100 µM | ACHN > 100 µM | NCI-H460 > 100 µM | OVCAR-8 > 100 µM | A498 > 100 µM | K562 > 100 µM | SF-268 > 100 µM | SN12C > 100 µM | M14 > 100 µM | HOP-62 > 100 µM
